# Measurements taken from the supplement of paper PMC4862054.
# “And” between values parts separate entries of the source, which are not always exact repeats. Equal entries are not always repeated.
# Assays:
# Experiment in all cases: normalised viability (% of control), CellTiter-Blue; higher = more viable cells (about 100 = DMSO control)
# Conditions in all cases: incubation time: 72 h
# CAL-148 = system: CAL-148
# Procedure, shortened: (§1)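 The reported figure is normalised viability at a single listed concentration of the series. Breast cancer cell lines (20 µl suspension) went onto 384-well plates holding compound in 5 µl medium for 72 h. CellTiter-Blue (2.5 µl, 2 h, 37 °C) was read by fluorescence at 560/590 nm, and each plate was scaled to vehicle at 100 and a positive kill control at 0.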
# CAL-85-1 = system: CAL-85-1
# Procedure, shortened: as §1
# DU-4475 = system: DU-4475
# Procedure, shortened: as §1
# HDQ-P1 = system: HDQ-P1
# Procedure, shortened: as §1
Structure (SMILES),normalised viability (CAL-148),normalised viability (CAL-85-1),normalised viability (DU-4475),normalised viability (HDQ-P1)
C[C@@H]1C[C@H]2[C@@H]3CCC4=CC(=O)C=C[C@]4(C)[C@@]3(F)[C@@H](O)C[C@]2(C)[C@@]1(O)C(=O)CO [Dexamethasone] (1000 nM),115%,103%,106%,117%
COc1cc2c(N3CCN(C(=O)Nc4ccc(OC(C)C)cc4)CC3)ncnc2cc1OCCCN1CCCCC1 [Tandutinib] (100 nM),101%,100%,117%,112%
O=C(O)CC[C@H]1CC[C@@](c2cc(F)ccc2F)(S(=O)(=O)c2ccc(Cl)cc2)CC1 [MK-0752] (100 nM),122%,102%,122%,110%
NC(=O)c1cccc2cn(-c3ccc([C@@H]4CCCNC4)cc3)nc12 [MK-4827] (1000 nM),87.4%,93%,78.9%,91.8%
Cn1nnc2c(C(N)=O)ncn2c1=O [Temozolomide] (1000 nM),113%,104%,101%,100%
NC(=O)NO [Hydroxyurea] (10000 nM),112%,102%,101%,103%
CO[C@H](C(=O)[C@@H](O)[C@@H](C)O)[C@@H]1Cc2cc3cc(O[C@H]4C[C@@H](O[C@@H]5C[C@@H](O)[C@H](O)[C@@H](C)O5)[C@H](O)[C@@H](C)O4)c(C)c(O)c3c(O)c2C(=O)[C@H]1O[C@H]1C[C@@H](O[C@@H]2C[C@@H](O)[C@@H](O[C@@H]3C[C@](C)(O)[C@H](O)[C@@H](C)O3)[C@@H](C)O2)[C@H](O)[C@@H](C)O1 [Plicamycin] (1000 nM),2.42% and 2.71%,6.52% and 5.6%,0.92% and -0.07%,32.4% and 21.1%
COc1cc2c(Oc3ccc(NC(=O)C4(C(=O)Nc5ccc(F)cc5)CC4)cc3F)ccnc2cc1OCCCN1CCOCC1 [Foretinib] (100 nM),92.8%,84.7%,100%,77.3%
Cc1c(N)nc([C@H](CC(N)=O)NC[C@H](N)C(N)=O)nc1C(=O)N[C@H](C(=O)N[C@H](C)[C@@H](O)[C@H](C)C(=O)N[C@H](C(=O)NCCc1nc(-c2nc(C(=O)NCCC[S+](C)C)cs2)cs1)[C@@H](C)O)[C@@H](OC1OC(CO)C(O)C(O)C1OC1OC(CO)C(O)C(OC(N)=O)C1O)c1cnc[nH]1 (stereo partly specified) [Bleomycin] (1000 nM),105%,94.5%,98.9%,88%
CN1CCN(c2nc(C3=C(c4c[nH]c5ccccc45)C(=O)NC3=O)c3ccccc3n2)CC1 [Sotrastaurin] (1000 nM),111%,124%,95.8%,100%
CC[C@@H]1C(=O)N(C)c2cnc(Nc3ccc(C(=O)N[C@H]4CC[C@H](N5CCN(CC6CC6)CC5)CC4)cc3OC)nc2N1C(C)C [Volasertib] (100 nM),23.4%,42%,21%,51.7%
CO[C@H]1C[C@@H]2CC[C@@H](C)[C@@](O)(O2)C(=O)C(=O)N2CCCC[C@H]2C(=O)O[C@H]([C@H](C)C[C@@H]2CC[C@@H](O)[C@H](OC)C2)CC(=O)[C@H](C)/C=C(\C)[C@@H](O)[C@@H](OC)C(=O)[C@H](C)C[C@H](C)/C=C/C=C/C=C/1C [Sirolimus] (100 nM),48.1%,52.6%,56.5%,70.6%
CC/C(=C(\c1ccccc1)c1ccc(OCCN(C)C)cc1)c1ccccc1 [Tamoxifen] (1000 nM),124%,101%,112%,98.7%
CCN(CC)CCOc1ccc(C(=C(Cl)c2ccccc2)c2ccccc2)cc1 [Clomifene] (1000 nM),110%,97.6%,103%,128%
